Measurements reported in the RepoRT retention time repository (doi:10.1016/j.chroma.2019.01.023).

How the values were obtained:
Details in all cases: stereoisomer not certain
[1] = HILIC, Waters ACQUITY UPLC BEH Amide, 150 × 2.1 mm, 1.7 µm, 40 °C, 0.5 mL/min, estimated dead time 0.66 min; A: 5% water + 95% acetonitrile; B: 70% water + 30% acetonitrile + 10 mM ammonium formate, pH 6.5; gradient (min/%B) 0/0 2/0 20/70 23/70 24/0 31/0
[2] = HILIC, Merck SeQuant ZIC-pHILIC, 150 × 2.1 mm, 5 µm, 40 °C, 0.3 mL/min, estimated dead time 1.1 min; A: acetonitrile; B: water + 2.8 mM ammonium formate, pH 9; gradient (min/%B) 0/5 1/5 10/51 13/51 13.1/5 20/5
[3] = RP, Phenomenex Kinetex C18, 150 × 2.1 mm, 1.7 µm, 30 °C, 0.3 mL/min, estimated dead time 1.1 min; A: water + 0.1% formic acid, pH 3; B: acetonitrile + 0.1% formic acid, pH 3; gradient (min/%B) 0/2 14/100 17/100 17.1/2 25/2

Row | SMILES | LC retention time [1] [min] | LC retention time [2] [min] | LC retention time [3] [min]
1 | O=c1cc[nH]c(=O)[nH]1 [URACIL] | 1.83 | 4.25 | 1.41
2 | CSCCC(O)C(=O)O (stereo not given) [2-HYDROXY-4-(METHYLTHIO)BUTANOATE] | 1.29 | 4.59 | 3.82
3 | O=c1[nH]c(=O)c2[nH]c(=O)[nH]c2[nH]1 [URATE] | 2.25 | 8.13 | 1.52
4 | CC(CCC(=O)O)C1CCC2C3CCC4CC(O)CCC4(C)C3CCC12C (stereo not given) [LITHOCHOLATE] | 0.84 | – | 12.8
5 | CCCCCCCCCC(=O)OCC(COP(=O)([O-])OCC[N+](C)(C)C)OC(=O)CCCCCCCCC (stereo not given) [DIDECANOYL-GLYCEROPHOSPHOCHOLINE] | 5.15 | 1.65 | 12.8
6 | O=c1cccc(O)[nH]1 [2,6-DIHYDROXYPYRIDINE] | 4.81 | 6.67 | 1.95
7 | CC(=O)NC(CC(=O)O)C(=O)O (stereo not given) [N-ACETYLASPARTATE] | 3.48 | 8.84 | 1.45
8 | C[N+](C)(C)CC(CC(=O)[O-])OC(=O)CCCC(=O)O (stereo not given) [GLUTARYLCARNITINE] | 11.9 | – | 2.56
9 | O=C(O)Cc1cc(O)ccc1O [HOMOGENTISATE] | 1.27 | 6.88 | 3.31
10 | CC(=O)NCC(=O)O [N-ACETYLGLYCINE] | 5.48 | 7.17 | 1.41
11 | O=C(O)CCCCCCCCCCCO [OMEGA-HYDROXYDODECANOATE] | 0.84 | – | 8.62
12 | O=C([O-])c1cccnc1 [NICOTINATE] | 3.5 | 5.76 | 1.41
13 | O=C(O)C=Cc1cnc[nH]1 [UROCANATE] | 4.08 | 7.08 | 1.43
14 | Nc1cc(C(=O)O)ccc1[O-] [3-AMINO-4-HYDROXYBENZOATE] | 1.84 | 7.39 | 1.52
15 | NC(=O)C1CCCN1C(=O)C(Cc1cnc[nH]1)NC(=O)C1CCC(=O)N1 (stereo not given) [THYROTROPIN RELEASING HORMONE] | 8.34 | 6.53 | 2.14
16 | O=C(O)CCCC(=O)O [GLUTARATE] | 2 | – | 2.92
17 | Nc1ncnc2c1ncn2C1OC(CO)C(O)C1O (stereo not given) [ADENOSINE] | 3.85 | 5.92 | 2.34
18 | Cc1ncc(CO)c(C=O)c1O [PYRIDOXAL] | 1.81 | 2.6 | 1.4
19 | O=C(O)Cc1ccccc1O [2-HYDROXYPHENYLACETATE] | 0.9 | – | 4.46
20 | CC(CC(=O)O)CC(=O)O [METHYGLUTARATE] | 1.27 | 7.27 | 3.85
21 | NC(CCOC(=O)CCC(=O)O)C(=O)O (stereo not given) [O-SUCCINYL-HOMOSERINE] | 11.8 | 8.3 | 1.45
22 | C=CC1=C(C)C(C=c2[nH]c(=Cc3[nH]c(C=C4NC(=O)C(C)=C4C=C)c(C)c3CCC(=O)O)c(CCC(=O)O)c2C)=NC1=O [BILIVERDIN] | 1.13 | – | 9.08
23 | NC(N)=NCCCC(=O)O [4-GUANIDINOBUTANOATE] | 10.1 | – | 1.39
24 | CC1(O)CCOC(=O)C1 (stereo not given) [MEVALOLACTONE] | 0.89 | – | 2.04
25 | O=C(O)CCCCCCC(=O)O [SUBERATE] | 4.7 | 5.2 | 5.34

Row | SMILES | LC retention time [1] [min] | LC retention time [2] [min] | LC retention time [3] [min]
26 | O=C([O-])CCc1ccccc1O [3-(2-HYDROXYPHENYL)PROPANOATE] | 1.02 | 2.12 | 6.02
27 | Nc1ncnc2c1ncn2C1OC(COP(=O)(O)O)C(O)C1O (stereo not given) [ADENOSINE-MONOPHOSPHATE] | – | 8.23 | 1.41
28 | O=C(O)c1cccc([O-])c1 [3-HYDROXYBENZOATE] | – | 6.39 | 4.87
29 | CCC(C)C(=O)C(=O)[O-] (stereo not given) [3-METHYL-2-OXOVALERATE] | 1.83 | – | 4.14
30 | CC(=O)NC(CS)C(=O)O (stereo not given) [N-ACETYLCYSTEINE] | 1.88 | – | 2.62
31 | CC(O)(CC(=O)O)C(=O)O (stereo not given) [CITRAMALATE] | – | 8.8 | 1.94
32 | CC(=O)NC(C)C(=O)O (stereo not given) [N-ACETYLALANINE] | 4.75 | – | 1.97
33 | O=C([O-])CCCCC(=O)[O-] [ADIPATE] | 5.26 | 8.71 | 3.73
34 | O=C(C=Cc1ccc(O)c(O)c1)OC(Cc1ccc(O)c(O)c1)C(=O)O (stereo not given) [ROSMARINATE] | – | 7.55 | 6.25
35 | O=C(O)c1ccc2ccccc2c1[O-] [1-HYDROXY-2-NAPHTHOATE] | – | 1.49 | 9.28
36 | Nc1ncnc2c1ncn2C1OC(CO)C2OP(=O)(O)OC21 (stereo not given) [ADENOSINE 2',3'-CYCLIC PHOSPHATE] | 6.69 | 6.94 | 1.73
37 | NC(=O)c1ccc[n+](C2OC(COP(=O)(O)OP(=O)([O-])OCC3OC(n4cnc5c(N)ncnc54)C(O)C3O)C(O)C2O)c1 (stereo not drawn) [BETA-NICOTINAMIDE ADENINE DINUCLEOTIDE] | – | 8.52 | 1.4
38 | CCC(NC(=O)CCC([NH3+])C(=O)[O-])C(=O)NCC(=O)[O-] (stereo not given) [OPHTHALMATE] | – | 8.32 | 1.58
39 | NC(CCC(=O)NC(CS)C(=O)NCC(=O)O)C(=O)O (stereo not given) [GLUTATHIONE REDUCED] | – | 8.59 | 1.46
40 | O=C(O)CC(O)(CC(=O)O)C(=O)O [CITRATE] | – | 10.2 | 1.57
41 | CC=CC=CC(=O)[O-] [SORBATE] | – | 1.73 | 4.51
42 | NCCc1ccc(O)c(O)c1 [DOPAMINE] | 8.68 | – | 1.62
43 | O=C(O)C(O)c1ccc(O)c(O)c1 (stereo not given) [3,4 DIHYDROXYMANDELATE] | – | 8.57 | 1.7
44 | OCC(O)c1ccc(O)c(O)c1 (stereo not given) [3,4-DIHYDROXYPHENYLGLYCOL] | – | 6.22 | 1.82
45 | O=C(O)CCC(=O)O [SUCCINATE] | 3.9 | – | 1.95
46 | O=C([O-])C(O)c1ccccc1 (stereo not given) [MANDELATE] | – | 4.83 | 4.45
47 | Oc1ccccc1O [PYROCATECHOL] | – | 8.04 | 3.77
48 | Nc1ncnc2c1ncn2C1OC(CSCCC([NH3+])C(=O)[O-])C(O)C1O (stereo not given) [S-ADENOSYLHOMOCYSTEINE] | – | 8.51 | 1.97
49 | O=C(O)Cc1ccc(O)cc1 [P-HYDROXYPHENYLACETATE] | – | 5.76 | 4.59
50 | Nc1nc2c(ncn2C2CC(O)C(COP(=O)(O)O)O2)c(=O)[nH]1 (stereo not given) [DEOXYGUANOSINE-MONOPHOSPHATE] | – | 8.92 | 1.67
